{
  "source": "patent US5962500A",
  "about": "“Insulin sensitivity with angiotensin II receptor blocking imidazoles” (priority 1994, dated 1999)",
  "key": {"pressor response to AII": {"tested_on": "pressor response to AII", "experiment": "Inhibition of the pressor response to AII in conscious dogs", "assay_type": "in vivo, dog", "method": "(§1) The hypotensive effects of 2-butyl-4-chloro-1-[2'-(1H-tetrazol-5-yl)biphenyl-4-yl)methyl]-5-hydroxymethylimidazole sodium salt were compared before and after furosemide administration to conscious dogs. […] Plasma renin activity (PRA) in these animals was 1.5±0.5 ng AI/ml/hr. Four days later, furosemide was given to three of these dogs at 10 mg/kg im at 18 and 2 hours before the experiment and increased PRA to 19.9±7.2 ng AI/ml/hr. […] Thus a combined therapy of these two classes of drugs will be likely to increase the response rate to therapy among hypertensive patients."}, "conscious dogs": {"tested_on": "conscious dogs", "experiment": "Hypotensive effects in conscious dogs before and after furosemide", "assay_type": "in vivo, dog", "method": "as §1"}, "[1]": {"tested_on": "awake rats made hypertensive by ligation of the left renal artery", "experiment": "Antihypertensive effects in renal hypertensive rats", "assay_type": "in vivo, rat", "method": "This procedure increases blood pressure by increasing renin production with consequent elevation of AII levels. Compounds are administered orally at 100 mg/kg and/or intravenously via a cannula in the jugular vein at 10 mg/kg. Arterial blood pressure is continuously measured directly through a carotid artery cannula and recorded using a pressure transducer and a polygraph. Blood pressure levels after treatment are compared to pretreatment levels to determine the antihypertensive effects of the compounds (See Table 1).\nCompounds listed in Table 2 were tested in the same manner as described for Table 1, except that in the test for antihypertensive effects in renal hypertensive rats, the compounds were administered orally at 30 mg/kg and intravenously at 3 mg/kg."}, "[2]": {"target": "AII receptor (rat adrenal cortical microsomes)", "experiment": "Angiotensin II receptor binding (displacement of 3H-AII)", "details": "2 nM 3H-AII, 1 hour at room temperature", "method": "The hormone angiotensin II (AII) produces numerous biological responses (e.g. vasoconstriction) through stimulation of its receptors on cell membranes. […] The reaction mixture contained rat adrenal cortical microsomes (source of AII receptor) in Tris buffer and 2 nM of ^3 H-AII with or without potential AII antagonist. This mixture was incubated for 1 hour at room temperature and the reaction was subsequently terminated by rapid filtraton and rinsing through glass micro-fibre filter. Receptor-bound ^3 H-AII trapped in filter was quantitiated by scintillation counting."}, "[3]": {"tested_on": "patients with severe hypertension", "experiment": "Baseline plasma catecholamines (radioenzymatic)", "assay_type": "in vivo, human", "method": "(§2) At the time of the study only a three day wash-out period was allowed due to the severity of their hypertension.\n(§3) A euglycemic glucose clamp procedure was performed three days after the initial screening, and after withdrawl from previous antihypertensive medications.\nThe euglycemic hyperinsulinemic glucose \"clamp\" was performed using a modification of the method described by DeFronzo, et al. Am. J. Physiol. 1979:237: E214-23, as previously detailed by Moan, et al., Metabolism, in press. Insulin was infused at a fixed rate of 1 mU/kg/min. This technique for measuring the glucose disposal rate has a day-to-day coefficient of less than 5% percent. […] The steady state levels of insulin varied from one person to another, and as a result the insulin sensitivity index was also calculated. This index is a ratio of the glucose disposal rate to the mean level of insulin during the last 20 minutes of the glucose clamp multiplied by 100, and is given arbitrary units. Blood for baseline adrenaline and noradrenaline were sampled in duplicate and the results averaged.\n(§4) Fasting glucose was determined enzymatically, using a glucose dehydrogenase method and a Cobas Bio analyzer (Roche, Basel Switzerland). A Reflolux II (Mannheim Boehringer GmbH, Mannheim, Germany) was utilized to measure glucose concentration during the glucose clamp procedure (within run coefficient of variation <3% in our laboratory). Fructosamine was determined by calorimetric method. Insulin was measured by radioimmunoassay technique, using a specific antibody from Linco Research Inc. (St. Louis, Mo., USA). The lower limit of detection is 5 mU/l cross reactivity with proinsulin less than 1% and intra-assay coefficient of variation below 9% at all levels. Plasma catecholamines from specialized venous blood were measured by the radioenzymatic technique of Peuler Johnson as detailed in Kjelsen et al., Scan. J. Clin. Invest. 1993:42:217-23. Blood pressure and heart rate were measured oscillometrically with an Omega 1000™ Adult/Pediatric Blood Pressure Recorder (INVIVO Research Laboratories Inc., Tulsa Okla., USA)."}, "[4]": {"tested_on": "patients with severe hypertension", "experiment": "Euglycemic hyperinsulinemic glucose clamp (insulin sensitivity)", "assay_type": "in vivo, human", "method": "as §2, §3\nThe euglycemic hyperinsulinemic glucose \"clamp\" was performed using a modification of the method described by DeFronzo, et al. Am. J. Physiol. 1979:237: E214-23, as previously detailed by Moan, et al., Metabolism, in press. Insulin was infused at a fixed rate of 1 mU/kg/min. […] This index is a ratio of the glucose disposal rate to the mean level of insulin during the last 20 minutes of the glucose clamp multiplied by 100, and is given arbitrary units. Blood for baseline adrenaline and noradrenaline were sampled in duplicate and the results averaged."}, "[5]": {"tested_on": "patients with severe hypertension", "experiment": "Blood pressure and heart rate (oscillometric)", "assay_type": "in vivo, human", "details": "after Losartan", "method": "as §2, §3, §4"}, "[6]": {"tested_on": "patients with severe hypertension", "experiment": "Fasting glucose, fructosamine and insulin", "assay_type": "in vivo, human", "details": "after Losartan", "method": "as §2, §3, §4"}, "arterial pressure": {"tested_on": "arterial pressure", "details": "cited from earlier work"}, "[7]": {"tested_on": "effects of AII on the blood pressure of pithed rats", "details": "cited from earlier work"}, "[8]": {"tested_on": "renal vasoconstrictor effect of NSAIDs", "details": "cited from earlier work"}, "Plasma renin activity": {"tested_on": "Plasma renin activity", "experiment": "Plasma renin activity (PRA) in conscious dogs", "assay_type": "in vivo, dog", "details": "furosemide 10 mg/kg im at 18 and 2 hours before; three dogs; before furosemide 1.5±0.5", "method": "as §1"}},
  "note": "Where a name gives a salt, the structure may show the parent alone.",
  "data": [
    {"smiles": "CCCCc1nc(Cl)c(CO)n1Cc1ccc(-c2ccccc2-c2nn[nH]n2)cc1", "note": "[2-butyl-4-chloro-1-[2'-(1H-tetrazol-5-yl)biphenyl-4-yl)methyl]-5-hydroxymethylimidazole sodium salt]", "values": [
      {"measurement": "inhibition of pressor response to AII", "setting": "pressor response to AII; after furosemide, cumulative iv, same doses", "value": "inhibited the pressor response to AII at the two higher doses"},
      {"measurement": "inhibition of pressor response to AII", "setting": "pressor response to AII; before furosemide, AII 0.1 μg/kg iv, 10 min post dose, cumulative iv 0.3 to 3 mg/kg", "value": "effective in inhibiting the pressor response to AII"},
      {"measurement": "blood pressure lowering", "setting": "conscious dogs; conscious dogs after furosemide 10 mg/kg im at 18 and 2 hours before, cumulative iv, same doses", "value": "significant decrease in blood pressure in a dose-dependent manner"},
      {"measurement": "blood pressure lowering", "setting": "conscious dogs; normotensive conscious dogs, before furosemide, cumulative iv 0.3 to 3 mg/kg, n=4", "value": "did not lower blood pressure"}
    ]},
    {"smiles": "CCCCc1nc(Cl)c(C(=O)O)n1Cc1ccc(-c2ccccc2-c2nn[nH]n2)cc1", "note": "[EXP-3174]", "values": [
      {"measurement": "Antihypertensive Effects in Renal Hypertensive Rats, Intravenous Activity", "setting": "[1]; Table 2, 3 mg/kg", "value": "+ (Significant decrease in blood pressure at 3.0 mg/kg or less)"},
      {"measurement": "Antihypertensive Effects in Renal Hypertensive Rats, Oral Activity", "setting": "[1]; Table 2, 30 mg/kg", "value": "+ (Significant decrease in blood pressure at 30 mg/kg or less)"},
      {"measurement": "IC50", "setting": "[2]", "value": 11, "unit": "nM"}
    ]},
    {"smiles": "CCCCc1nc(Cl)c(CO)n1Cc1ccc(-c2ccccc2-c2nnn[nH]2)cc1", "note": "[Losartan, 2-n-butyl-4-chloro-5-hydroxymethyl-1-[(2'-(1H-tetrazol-5-yl)biphenyl-4-yl)methyl]imidazole]", "values": [
      {"measurement": "decrease in baseline plasma noradrenaline", "setting": "[3]; Losartan vs before treatment, p<0.05", "value": 40, "unit": "%"},
      {"measurement": "plasma adrenaline", "setting": "[3]; after Losartan, before treatment 0.23±0.10, n.s.", "value": "0.22 ± 0.11", "unit": "nmol/L"},
      {"measurement": "baseline plasma noradrenaline", "setting": "[3]; after Losartan, before treatment 1.87±0.53, p<0.05", "value": "1.11 ± 0.13", "unit": "nmol/L"},
      {"measurement": "increase in glucose disposal rate", "setting": "[4]; Losartan vs baseline, p<0.05", "value": 27, "unit": "%"},
      {"measurement": "glucose disposal rate", "setting": "[4]; after Losartan 50-100 mg oral once a day, average about 6 weeks, baseline 6.2±2.6, p<0.05", "value": "7.9±2.6", "unit": "mg/kg×min"},
      {"measurement": "average plasma insulin level during second clamp", "setting": "[4]; insulin infused 1 mU/kg/min, end of Losartan monotherapy, first clamp 85±11", "value": "80±7", "unit": "mU/l"},
      {"measurement": "baseline heart rate", "setting": "[5]; before treatment 65±9, n.s.", "value": "68±12", "unit": "beats/min"},
      {"measurement": "baseline mean blood pressure", "setting": "[5]; before treatment 132±10, p<0.05", "value": "119±13", "unit": "mmHg"},
      {"measurement": "Antihypertensive Effects in Renal Hypertensive Rats, Intravenous Activity", "setting": "[1]; Table 1, 10 mg/kg", "value": "+ (Significant decrease in blood pressure at 10 mg/kg or less)"},
      {"measurement": "Antihypertensive Effects in Renal Hypertensive Rats, Oral Activity", "setting": "[1]; Table 1, 100 mg/kg", "value": "+ (Significant decrease in blood pressure at 100 mg/kg or less)"},
      {"measurement": "fasting glucose", "setting": "[6]; baseline 5.0±0.3, non-significant", "value": "4.8 ± 0.1", "unit": "mmol/L"},
      {"measurement": "fasting serum insulin", "setting": "[6]; baseline 12±3, unchanged", "value": "12±2", "unit": "mU/l"},
      {"measurement": "fructosamine", "setting": "[6]; baseline 227±18, non-significant", "value": "217 ± 11", "unit": "µmol/L"}
    ]},
    {"smiles": "CNCC(=O)N[C@@H](CCCN=C(N)N)C(=O)N[C@H](C(=O)N[C@@H](Cc1ccc(O)cc1)C(=O)N[C@H](C(=O)N[C@@H](Cc1cnc[nH]1)C(=O)N1CCC[C@H]1C(=O)N[C@@H](C)C(=O)O)C(C)C)C(C)C", "note": "[Saralasin, [Sar^1, Ala^8] AII]", "values": [
      {"measurement": "oral efficacy", "setting": "arterial pressure; oral doses", "value": "oral doses being ineffective"},
      {"measurement": "duration of pharmacological effects", "setting": "arterial pressure; parenteral administration", "value": "relatively short-lasting"},
      {"measurement": "effect on arterial pressure", "setting": "arterial pressure; pressure dependent on circulating AII", "value": "lower arterial pressure in mammals and man"},
      {"measurement": "pressor effects", "setting": "arterial pressure; pressure not sustained by AII", "value": "generally elicits pressor effects when the pressure is not sustained by AII"},
      {"measurement": "antagonism of the actions of AII", "setting": "[7]; pithed rats", "value": "one of the most potent competitive antagonists of the actions of AII"},
      {"measurement": "agonistic actions", "setting": "[7]; rat, in vivo", "value": "possesses agonistic actions of its own"},
      {"measurement": "inhibition of renal vasoconstrictor effect of indomethacin", "setting": "[8]; dogs", "value": "inhibit the renal vasoconstrictor effect"},
      {"measurement": "inhibition of renal vasoconstrictor effect of meclofenamate", "setting": "[8]; dogs", "value": "inhibit the renal vasoconstrictor effect"}
    ]},
    {"smiles": "C[C@H](CS)C(=O)N1CCC[C@H]1C(=O)O", "note": "[captopril]", "values": [
      {"measurement": "reversal of renal vasoconstrictor effect of indomethacin", "setting": "[8]; dogs with non-hypotensive hemorrhage", "value": "reverse the renal vasoconstrictor effect of indomethacin"}
    ]},
    {"smiles": "NS(=O)(=O)c1cc(C(=O)O)c(NCc2ccco2)cc1Cl", "note": "[furosemide]", "values": [
      {"measurement": "Plasma renin activity (PRA)", "setting": "Plasma renin activity", "value": "19.9±7.2", "unit": "ng AI/ml/hr"}
    ]}
  ]
}
